# Assay results published in article PMC10994248 (The Oncologist, 2024).
# Assay: Phase I safety and tolerability (TEAEs, DLTs, MTD, DRDE) in patients with advanced solid tumors
# Assay type: in vivo, human
# Protocol: This 2-part, open-label, phase I study was conducted at the MD Anderson Cancer Center in Texas, USA and the Cancer Hospital Chinese Academy of Medical Sciences in Beijing, China. […] This was followed by a dose-expansion phase, the primary objective of which was to confirm the safety and tolerability of tinengotinib at the DRDE. Secondary objectives were to characterize the pharmacokinetics and preliminary efficacy of tinengotinib.
# Dose escalation was guided by an adaptive Bayesian logistic regression model using the Escalation with Overdose Control principle.[6],[7] Study data (including DLTs, grade 2 adverse events during cycle 1, and pharmacokinetic data) were reviewed by the sponsor and trial investigators at each dose level and used to guide dose-escalation decisions. MTD was based on the Bayesian model, but with consideration given to available safety and tolerability data. DRDE was based on an evaluation of all available data (safety, clinical activity, and pharmacokinetics).
# After determination of the DRDE, the dose-expansion phase was opened to further characterize safety and pharmacokinetics, and to assess preliminary efficacy.
# Routine safety assessments of adverse events, laboratory tests (hematology, coagulation, biochemistry, and urinalysis), vital signs, and 12-lead electrocardiograms were performed. Adverse events were graded according to the National Cancer Institute Common Terminology Criteria for Adverse Events (CTCAE), version 5.0.
# [1] = dose escalation (n = 40), any grade
# [2] = dose escalation (n = 40), grade ≥3
# [3] = dose expansion (12 mg, n = 8), any grade
# [4] = dose expansion (12 mg, n = 8), grade ≥3
substance,measurement,setting,value
tinengotinib,Patients with study drug-related TEAE leading to study drug permanent discontinuation,dose escalation 12 mg (n=12),1 (8.3) n (%)
same,Patients with study drug-related grade ≥3 TEAE,dose escalation 12 mg (n=12),6 (50.0) n (%)
same,Patients with study drug-related treatment-emergent SAE,dose escalation 12 mg (n=12),0 n (%)
same,Patients with treatment-emergent SAE,dose escalation 12 mg (n=12),5 (41.7) n (%)
same,Patients with AE,dose escalation 15 mg (n=6),6 (100) n (%)
same,Patients with TEAE,dose escalation 15 mg (n=6),6 (100) n (%)
same,Patients with TEAE leading to death,dose escalation 15 mg (n=6),0 n (%)
same,Patients with TEAE leading to dose adjustment/temporary interruption,dose escalation 15 mg (n=6),4 (66.7) n (%)
same,Patients with TEAE leading to study drug permanent discontinuation,dose escalation 15 mg (n=6),3 (50.0) n (%)
same,Patients with grade ≥3 TEAE,dose escalation 15 mg (n=6),5 (83.3) n (%)
same,Patients with study drug-related TEAE,dose escalation 15 mg (n=6),5 (83.3) n (%)
same,Patients with study drug-related TEAE leading to dose adjustment/temporary interruption,dose escalation 15 mg (n=6),3 (50.0) n (%)
same,Patients with study drug-related TEAE leading to study drug permanent discontinuation,dose escalation 15 mg (n=6),0 n (%)
same,Patients with study drug-related grade ≥3 TEAE,dose escalation 15 mg (n=6),3 (50.0) n (%)
same,Patients with study drug-related treatment-emergent SAE,dose escalation 15 mg (n=6),1 (16.7) n (%)
same,Patients with treatment-emergent SAE,dose escalation 15 mg (n=6),4 (66.7) n (%)
same,Study drug-related TEAE,[1],33 (82.5) No. (%)
same,Study drug-related TEAE: Alanine aminotransferase increased,[1],4 (10.0) No. (%)
same,Study drug-related TEAE: Aspartate aminotransferase increased,[1],4 (10.0) No. (%)
same,Study drug-related TEAE: Blood thyroid-stimulating hormone increased,[1],4 (10.0) No. (%)
same,Study drug-related TEAE: Decreased appetite,[1],5 (12.5) No. (%)
same,Study drug-related TEAE: Diarrhea,[1],15 (37.5) No. (%)
same,Study drug-related TEAE: Dry mouth,[1],5 (12.5) No. (%)
same,Study drug-related TEAE: Hypertension,[1],19 (47.5) No. (%)
same,Study drug-related TEAE: Myalgia,[1],5 (12.5) No. (%)
same,Study drug-related TEAE: Nausea,[1],11 (27.5) No. (%)
same,Study drug-related TEAE: Palmar-plantar erythrodysesthesia syndrome,[1],10 (25.0) No. (%)
same,Study drug-related TEAE: Proteinuria,[1],6 (15.0) No. (%)
same,Study drug-related TEAE: Stomatitis,[1],9 (22.5) No. (%)
same,Study drug-related TEAE: Vomiting,[1],10 (25.0) No. (%)
same,Study drug-related serious TEAE,[1],5 (12.5) No. (%)
same,Study drug-related TEAE,[2],16 (40.0) No. (%)
same,Study drug-related TEAE: Alanine aminotransferase increased,[2],0 No. (%)
same,Study drug-related TEAE: Aspartate aminotransferase increased,[2],0 No. (%)
same,Study drug-related TEAE: Blood thyroid-stimulating hormone increased,[2],0 No. (%)
same,Study drug-related TEAE: Decreased appetite,[2],0 No. (%)
same,Study drug-related TEAE: Diarrhea,[2],1 (2.5) No. (%)
same,Study drug-related TEAE: Dry mouth,[2],0 No. (%)
same,Study drug-related TEAE: Hypertension,[2],9 (22.5) No. (%)
same,Study drug-related TEAE: Myalgia,[2],0 No. (%)
same,Study drug-related TEAE: Nausea,[2],1 (2.5) No. (%)
same,Study drug-related TEAE: Palmar-plantar erythrodysesthesia syndrome,[2],1 (2.5) No. (%)
same,Study drug-related TEAE: Proteinuria,[2],0 No. (%)
same,Study drug-related TEAE: Stomatitis,[2],2 (5.0) No. (%)
same,Study drug-related TEAE: Vomiting,[2],0 No. (%)
same,Study drug-related serious TEAE,[2],0 No. (%)
same,Patients with AE,dose escalation total (n=40),39 (97.5) n (%)
same,Patients with TEAE,dose escalation total (n=40),39 (97.5) n (%)
same,Patients with TEAE leading to death,dose escalation total (n=40),0 n (%)
same,Patients with TEAE leading to dose adjustment/temporary interruption,dose escalation total (n=40),24 (60.0) n (%)
same,Patients with TEAE leading to study drug permanent discontinuation,dose escalation total (n=40),12 (30.0) n (%)
same,Patients with grade ≥3 TEAE,dose escalation total (n=40),26 (65.0) n (%)
same,Patients with study drug-related TEAE,dose escalation total (n=40),33 (82.5) n (%)
same,Patients with study drug-related TEAE leading to dose adjustment/temporary interruption,dose escalation total (n=40),18 (45.0) n (%)
same,Patients with study drug-related TEAE leading to study drug permanent discontinuation,dose escalation total (n=40),6 (15.0) n (%)
same,Patients with study drug-related grade ≥3 TEAE,dose escalation total (n=40),16 (40.0) n (%)
same,Patients with study drug-related treatment-emergent SAE,dose escalation total (n=40),5 (12.5) n (%)
same,Patients with treatment-emergent SAE,dose escalation total (n=40),18 (45.0) n (%)
same,Patients with AE,dose expansion 12 mg (n=8),8 (100) n (%)
same,Patients with TEAE,dose expansion 12 mg (n=8),8 (100) n (%)
same,Patients with TEAE leading to death,dose expansion 12 mg (n=8),0 n (%)
same,Patients with TEAE leading to dose adjustment/temporary interruption,dose expansion 12 mg (n=8),7 (87.5) n (%)
same,Patients with TEAE leading to study drug permanent discontinuation,dose expansion 12 mg (n=8),0 n (%)
same,Patients with grade ≥3 TEAE,dose expansion 12 mg (n=8),5 (62.5) n (%)
same,Patients with study drug-related TEAE,dose expansion 12 mg (n=8),8 (100) n (%)
same,Patients with study drug-related TEAE leading to dose adjustment/temporary interruption,dose expansion 12 mg (n=8),7 (87.5) n (%)
same,Patients with study drug-related TEAE leading to study drug permanent discontinuation,dose expansion 12 mg (n=8),0 n (%)
same,Patients with study drug-related grade ≥3 TEAE,dose expansion 12 mg (n=8),5 (62.5) n (%)
same,Patients with study drug-related treatment-emergent SAE,dose expansion 12 mg (n=8),3 (37.5) n (%)
same,Patients with treatment-emergent SAE,dose expansion 12 mg (n=8),4 (50.0) n (%)
same,Study drug-related TEAE,[3],8 (100) No. (%)
same,Study drug-related TEAE: Alanine aminotransferase increased,[3],1 (12.5) No. (%)
same,Study drug-related TEAE: Aspartate aminotransferase increased,[3],1 (12.5) No. (%)
same,Study drug-related TEAE: Blood thyroid-stimulating hormone increased,[3],3 (37.5) No. (%)
same,Study drug-related TEAE: Decreased appetite,[3],2 (25.0) No. (%)
same,Study drug-related TEAE: Diarrhea,[3],1 (12.5) No. (%)
same,Study drug-related TEAE: Dry mouth,[3],0 No. (%)
same,Study drug-related TEAE: Hypertension,[3],5 (62.5) No. (%)
same,Study drug-related TEAE: Myalgia,[3],0 No. (%)
same,Study drug-related TEAE: Nausea,[3],0 No. (%)
same,Study drug-related TEAE: Palmar-plantar erythrodysesthesia syndrome,[3],4 (50.0) No. (%)
same,Study drug-related TEAE: Proteinuria,[3],0 No. (%)
same,Study drug-related TEAE: Stomatitis,[3],5 (62.5) No. (%)
same,Study drug-related TEAE: Vomiting,[3],0 No. (%)
same,Study drug-related TEAE,[4],5 (62.5) No. (%)
same,Study drug-related TEAE: Alanine aminotransferase increased,[4],0 No. (%)
same,Study drug-related TEAE: Aspartate aminotransferase increased,[4],0 No. (%)
same,Study drug-related TEAE: Blood thyroid-stimulating hormone increased,[4],0 No. (%)
same,Study drug-related TEAE: Decreased appetite,[4],0 No. (%)
same,Study drug-related TEAE: Diarrhea,[4],0 No. (%)
same,Study drug-related TEAE: Dry mouth,[4],0 No. (%)
same,Study drug-related TEAE: Hypertension,[4],4 (50.0) No. (%)
same,Study drug-related TEAE: Myalgia,[4],0 No. (%)
same,Study drug-related TEAE: Nausea,[4],0 No. (%)
same,Study drug-related TEAE: Palmar-plantar erythrodysesthesia syndrome,[4],0 No. (%)
same,Study drug-related TEAE: Proteinuria,[4],0 No. (%)
same,Study drug-related TEAE: Stomatitis,[4],0 No. (%)
same,Study drug-related TEAE: Vomiting,[4],0 No. (%)
same,Study drug-related serious TEAE,[4],0 No. (%)
same,Dose recommended for dose expansion (DRDE),"orally once daily, 28-day cycle",12 mg
same,Study drug-related TEAE,"total (n = 48), any grade",41 (85.4) No. (%)
same,Study drug-related TEAE: Alanine aminotransferase increased,"total (n = 48), any grade",5 (10.4) No. (%)
same,Study drug-related TEAE: Aspartate aminotransferase increased,"total (n = 48), any grade",5 (10.4) No. (%)
same,Study drug-related TEAE: Blood thyroid-stimulating hormone increased,"total (n = 48), any grade",7 (14.6) No. (%)
same,Study drug-related TEAE: Decreased appetite,"total (n = 48), any grade",7 (14.6) No. (%)
same,Study drug-related TEAE: Diarrhea,"total (n = 48), any grade",16 (33.3) No. (%)
same,Study drug-related TEAE: Dry mouth,"total (n = 48), any grade",5 (10.4) No. (%)
same,Study drug-related TEAE: Hypertension,"total (n = 48), any grade",24 (50.0) No. (%)
same,Study drug-related TEAE: Myalgia,"total (n = 48), any grade",5 (10.4) No. (%)
same,Study drug-related TEAE: Nausea,"total (n = 48), any grade",11 (22.9) No. (%)
same,Study drug-related TEAE: Palmar-plantar erythrodysesthesia syndrome,"total (n = 48), any grade",14 (29.2) No. (%)
same,Study drug-related TEAE: Proteinuria,"total (n = 48), any grade",6 (12.5) No. (%)
same,Study drug-related TEAE: Stomatitis,"total (n = 48), any grade",14 (29.2) No. (%)
same,Study drug-related TEAE: Vomiting,"total (n = 48), any grade",10 (20.8) No. (%)
same,Study drug-related TEAE,"total (n = 48), grade ≥3",21 (43.8) No. (%)
same,Study drug-related TEAE: Alanine aminotransferase increased,"total (n = 48), grade ≥3",0 No. (%)
same,Study drug-related TEAE: Aspartate aminotransferase increased,"total (n = 48), grade ≥3",0 No. (%)
same,Study drug-related TEAE: Blood thyroid-stimulating hormone increased,"total (n = 48), grade ≥3",0 No. (%)
same,Study drug-related TEAE: Decreased appetite,"total (n = 48), grade ≥3",0 No. (%)
same,Study drug-related TEAE: Diarrhea,"total (n = 48), grade ≥3",1 (2.1) No. (%)
same,Study drug-related TEAE: Dry mouth,"total (n = 48), grade ≥3",0 No. (%)
same,Study drug-related TEAE: Hypertension,"total (n = 48), grade ≥3",13 (27.1) No. (%)
same,Study drug-related TEAE: Myalgia,"total (n = 48), grade ≥3",0 No. (%)
same,Study drug-related TEAE: Nausea,"total (n = 48), grade ≥3",1 (2.1) No. (%)
same,Study drug-related TEAE: Palmar-plantar erythrodysesthesia syndrome,"total (n = 48), grade ≥3",1 (2.1) No. (%)
same,Study drug-related TEAE: Proteinuria,"total (n = 48), grade ≥3",0 No. (%)
same,Study drug-related TEAE: Stomatitis,"total (n = 48), grade ≥3",2 (4.2) No. (%)
same,Study drug-related TEAE: Vomiting,"total (n = 48), grade ≥3",0 No. (%)
same,Study drug-related serious TEAE,"total (n = 48), grade ≥3",0 No. (%)
same,Patients with AE,total (n=48),47 (97.9) n (%)
same,Patients with TEAE,total (n=48),47 (97.9) n (%)
same,Patients with TEAE leading to death,total (n=48),0 n (%)
same,Patients with TEAE leading to dose adjustment/temporary interruption,total (n=48),31 (64.6) n (%)
same,Patients with TEAE leading to study drug permanent discontinuation,total (n=48),12 (25.0) n (%)
same,Patients with grade ≥3 TEAE,total (n=48),31 (64.6) n (%)
same,Patients with study drug-related TEAE,total (n=48),41 (85.4) n (%)
same,Patients with study drug-related TEAE leading to dose adjustment/temporary interruption,total (n=48),25 (52.1) n (%)
same,Patients with study drug-related TEAE leading to study drug permanent discontinuation,total (n=48),6 (12.5) n (%)
same,Patients with study drug-related grade ≥3 TEAE,total (n=48),21 (43.8) n (%)
same,Patients with study drug-related treatment-emergent SAE,total (n=48),8 (16.7) n (%)
same,Patients with treatment-emergent SAE,total (n=48),22 (45.8) n (%)
